Test results from patent US20100119494A1, “METHODS AND COMPOSITIONS RELATED TO MODULATING THE EXTRACELLULAR STEM CELL ENVIRONMENT” (Massachusetts Institute of Technology, priority 2005, published 2010).

B1: Hep-III: HSGAG-degrading enzyme; cleaves HSGAGs at undersulfated regions (protein, UniProt Q59289 25-659, looked up)
Heparin-sulfate lyase: QSSSITRKDFDHINLEYSGLEKVNKAVAAGNYDDAAKALLAYYREKSKAREPDFSNAEKPADIRQPIDKVTREMADKALVHQFQPHKGYGYFDYGKDINWQMWPVKDNEVRWQLHRVKWWQAMALVYHATGDEKYAREWVYQYSDWARKNPLGLSQDNDKFVWRPLEVSDRVQSLPPTFSLFVNSPAFTPAFLMEFLNSYHQQADYLSTHYAEQGNHRLFEAQRNLFAGVSFPEFKDSPRWRQTGISVLNTEIKKQVYADGMQFELSPIYHVAAIDIFLKAYGSAKRVNLEKEFPQSYVQTVENMIMALISISLPDYNTPMFGDSWITDKNFRMAQFASWARVFPANQAIKYFATDGKQGKAPNFLSKALSNAGFYTFRSGWDKNATVMVLKASPPGEFHAQPDNGTFELFIKGRNFTPDAGVFVYSGDEAIMKLRNWYRQTRIHSTLTLDNQNMVITKARQNKWETGNNLDVLTYTNPSYPNLDHQRSVLFINKKYFLVIDRAIGEATGNLGVHWQLKEDSNPVFDKTKNRVYTTYRDGNNLMIQSLNADRTSLNEEEGKVSYVYNKELKRPAFVFEKPKKNAGTQNFVSIVYPYDGQKAPEISIRENKGNDFEKGKLNLTLTINGKQQLVLVP
B2: Hep-I: HSGAG-degrading enzyme; cleaves HSGAGs at highly sulfated regions; gift of Momenta Pharmaceuticals (protein, UniProt Q05819 22-384, looked up)
Heparin lyase I: QQKKSGNIPYRVNVQADSAKQKAIIDNKWVAVGINKPYALQYDDKLRFNGKPSYRFELKAEDNSLEGYAAGETKGRTELSYSYATTNDFKKFPPSVYQNAQKLKTVYHYGKGICEQGSSRSYTFSVYIPSSFPDNATTIFAQWHGAPSRTLVATPEGEIKTLSIEEFLALYDRMIFKKNIAHDKVEKKDKDGKITYVAGKPNGWKVEQGGYPTLAFGFSKGYFYIKANSDRQWLTDKADRNNANPENSEVMKPYSSEYKTSTIAYKMPFAQFPKDCWITFDVAIDWTKYGKEANTILKPGKLDVMMTYTKNKKPQKAHIVNQQEILIGRNDDDGYYFKFGIYRVGNSTVPVTYNLSGYSETAR

Key:
Assay type in all cases: cell-based, mouse
ES cells = assay: Optimization of culture conditions for differentiation of ES cells into endothelial cells (marker expression); conditions: 15% FBS present, LIF absent
Description: Mouse embryonic stem cells (J1) (gift from Bevin Engelward, Mass. Institute of Technology, Cambridge, Mass.) were grown in DMEM with 2 mM L-glutamine (GIBCO, Carlsbad, Calif.) adjusted to contain 100 mM sodium pyruvate, 10 mM nonessential amino acids and 1.5 g/L sodium bicarbonate, with 15% fetal bovine serum (Hyclone, South Logan, Utah) and supplemented with 100 units/mL penicillin G (Sigma, St. Louis, Mo.), 100 μg/mL streptomycin sulfate (Sigma), 30 mM beta-mercaptoethanol (Sigma) and 1000 units/ml murine leukemia inhibitory factor, LIF (Chemicon, Temecula, Calif.). The cells were plated in 10 cm^2 cell culture dishes, coated with 0.1% gelatin B (Sigma) and grown at 37° C. in a 5% CO2 humidifier incubator. The culture medium was changed every 2 days. The cells were subcultured at a split ratio of 1:10 when they reached 80% to 90% confluency, using a 0.25% trypsin-EDTA solution (Sigma). To induce formation of embryoid bodies and differentiation into endothelial cells, J1 cells were plated at a density of 1.25×10^5 cells/100 mm dish, or 3×10^4 cells/6 wells and cultured in the absence of LIF. Fresh media was replenished every 2 days.
To optimize the conditions for efficient differentiation of ES cells into endothelial cells in vitro, the expression levels of ES cell specific and endothelial cell specific markers were analyzed at different stages of differentiation under different cell culture conditions. Specifically, the effects of cell density, the ECM content (i.e., gelatin, collagen, laminin, matrigel), exogenous addition of growth factors (i.e., VEGF, FGF, HGF and insulin) and different types of serum (i.e., Sigma fetal bovine serum (FBS) and Hyclone FBS) were tested.

[1] = system: phosphorylation of ERK1/2 (MAPK pathway); assay: Western blot of phospho-ERK normalized to total ERK1/2 in differentiating ES cells; conditions: for phosphorylation of ERK1/2: Western blot, FIGS. 14 and 18
Description: (§1) Heparinase III (Hep-III) was prepared as described previously (Godavarti, R., et al. (1996) Biochemistry 35, 6846-52). Heparinase I (Hep-I) was a generous gift of Momenta Pharmaceuticals (Cambridge, Mass.). Sodium chlorate and heparin were purchased from Sigma and Cambrex BioWhittaker (East Rutherford, N.J.), respectively. To enzymatically modify the HSGAG glycome signature of the cells, cells were washed with phosphate buffer saline (PBS) and incubated with Hep-I or Hep-III for 30 minutes every day at 37° C. in serum free DMEM. Digested HSGAG residues were removed by washing the cells, and cells were then fed with fresh media. In an additional experiment, cells were cultured with medium containing sodium chlorate, which blocks the sulfation of HSGAGs. In a reversal experiment, heparin was added to the culture to overcome the chlorate induced synthetic block. Treated cells were analyzed for differentiation into endothelial cells between day 3 and day 15. Hep-III was added to the cells at a concentration of 2.5 μg/mL, Hep-I was added at a concentration of 1.5 μg/mL, sodium chlorate at 10 mM and heparin (20 μg). The concentrations of enzymes were optimized to exhaustively cleave all cell surface HSGAGs in the given period of time. All enzymes and chemicals were diluted in serum free DMEM.
For elucidating the biochemical pathways involved downstream of the modulation of the cell surface sugars, protein contents of the embryoid bodies were solubilized by rapid mixing with 3× SDS sample buffer under reducing conditions. Equivalent amounts of protein per sample were electrophoretically resolved on 4-12% gradient polyacrylamide gels and transferred onto a nitrocellulose (0.22 μm) membrane. The membrane was subsequently probed with a phosphor-ERK antibody (1:800 dilution, Cell Signaling Technologies, Danvers, Mass.), which specifically detects the phosphorylated forms of ERK1 and 2. The signal was amplified using a 1:2000 dilution of the appropriate horseradish peroxidase-conjugated secondary antibody (BioRad, Hercules, Calif.), and the immunocomplexes were visualized using enhanced chemiluminescence detection (Amersham Life Science, Piscataway, N.J.). The signal was normalized to the expression of total ERK1/2, which was detected on the same blot using ERK1/2 specific antibodies (Santa Cruz, Santa Cruz, Calif., used at a 1:200 dilution). Quantification of the luminescence signal was carried out by a Kodak 2000R imager.
The MAPK pathway is the downstream convergence point of the signaling of several angiogenic factors such as VEGF, FGF, HGF, EGF, PDGF and angiopoietins (Sengupta, S., et al. (2003) Arterioscler Thromb Vasc Biol 23, 69-75). […]

[2] = system: differentiating ES cells (J1); assay: Confocal microscopy of vWF and Oct-4 staining in differentiating ES cells; conditions: for vWF expression (confocal microscopy): FIG. 15A, treated differentiating ES cells; for Oct-4 levels of differentiating cells (confocal microscopy): FIG. 15B
Description: (§2) Mouse embryonic stem cells (J1) (gift from Bevin Engelward, Mass. Institute of Technology, Cambridge, Mass.) were grown in DMEM with 2 mM L-glutamine (GIBCO, Carlsbad, Calif.) adjusted to contain […] sodium pyruvate, 10 mM nonessential amino acids and 1.5 g/L sodium bicarbonate, with 15% fetal bovine serum (Hyclone, South Logan, Utah) and supplemented with 100 units/mL penicillin G (Sigma, St. Louis, Mo.), 100 μg/mL streptomycin sulfate (Sigma), 30 mM beta-mercaptoethanol (Sigma) and 1000 units/ml murine leukemia inhibitory factor, LIF (Chemicon, Temecula, Calif.). The cells were plated in 10 cm^2 cell culture dishes, coated with 0.1% gelatin B (Sigma) and grown at 37° C. in a 5% CO2 humidifier incubator. The culture medium was changed every 2 days. The cells were subcultured at a split ratio of 1:10 when they reached 80% to 90% confluency, using a 0.25% trypsin-EDTA solution (Sigma). To induce formation of embryoid bodies and differentiation into endothelial cells, J1 cells were plated at a density of 1.25×10^5 cells/100 mm dish, or 3×10^4 cells/6 wells and cultured in the absence of LIF. Fresh media was replenished every 2 days.
as §1
For microscopic analysis of endothelial cells, the differentiating J1 cells were fixed in cold methanol at designated time points, blocked in goat serum and probed overnight with a rabbit primary antibody against vWF, an endothelial cell marker, or Oct-4, a stem cell marker. The sections were washed and re-probed with a goat secondary antibody coupled to FITC. The nuclei were counterstained with propidium iodide. Images were captured using a […] LSM510 confocal microscope at a 512×512 pixels resolution (Leica, Bannockburn, Ill.). Fluorochromes were excited with 488 nm and 543 nm laser lines, and the images were captured using 505-530 BP and 565-615 BP filters at a 512×512 pixels resolution.
To dissect the role of HSGAG structure in ES cell differentiation, the cell surface and extracellular HSGAG moieties of differentiating ES cells were modified using an enzymatic and pharmacological approach. Specifically, differentiating ES cells were incubated with Hep-I or Hep-III for 30 minutes every day to cleave the cell surface and extracellular matrix (ECM) HSGAGs at structurally distinct sites, or cultured in media supplemented with sodium chlorate, which is a pharmacological inhibitor of HSGAG biosynthesis (Safaiyan, F., et al. (1999) J Biol Chem 274, 36267-73). Hep-I cleaves HSGAGs at highly sulfated regions, and Hep-III cleaves HSGAGs at undersulfated regions (Linhardt, R. J., et al. (1990) Biochemistry 29, 2611-7; Godavarti, R., and Sasisekharan, R. (1996) Biochem Biophys Res Commun 229, 770-7). […]

[3] = system: differentiating ES cells (J1); assay: Real-time PCR of Oct-4, VEGF-R2, VE-cadherin and eNOS transcripts in differentiating ES cells; conditions: for Oct-4 transcript levels / VE-cadherin transcript levels / eNOS transcript levels: real-time PCR, FIG. 19
Description: as §2, §1
RNA was isolated from J1 cells using TRIzol (Invitrogen, Carlsbad, Calif.) and RNAlater (Qiagen, Valencia, Calif.) according to the manufacturer's protocol. Single-stranded cDNA was generated via oligo-dT primed reverse transcription, and genes serving as markers for differentiation were quantified using an Abi Prism 7700 real-time PCR thermocycler (Applied Biosystems, Foster City, Calif.). Expression levels were obtained for the marker genes Oct-4, VE-cadherin, VEGF-R2, and eNOS, with β-actin used as a control. PCR conditions involved denaturation for 10 min at 95° C., followed by 40 cycles of denaturation for 20 sec at 94° C., and annealing and extension for 1 min at 60° C. cDNA isolated from J1 cells and primers for the described genes were mixed with SYBR Green PCR Mastermix (Applied Biosystems) for real-time quantification according to the manufacturers instructions. Primers used were 5′-[…]-3′ (SEQ ID NO: 1) and 5′-[…]-3′ (SEQ ID NO: 2) for Oct-4; 5′-[…]-3′ (SEQ ID NO: 3) and 5′-[…]-3′ (SEQ ID NO: 4) for VE-cadherin; 5′-[…]-3′ (SEQ ID NO: 5) and 5′-[…]-3′ (SEQ ID NO: 6) for TIE-2; 5′-[…]-3′ (SEQ ID NO: 7) and 5′-[…]-3′ (SEQ ID NO: 8) for VEGF-R2; 5′-[…]-3′ (SEQ ID NO: 9) and 5% […]-3′ (SEQ ID NO: 10) for ENOS; 5′-[…]-'3 (SEQ ID NO: 11) and 5′-[…]-'3 (SEQ ID NO: 12) for 13-actin. The sulfotransferase primers and conditions were chosen. […]

[4] = system: differentiating ES cells (J1); assay: Flow cytometry of vWF in differentiating ES cells after enzymatic or pharmacological modification of HSGAGs; conditions: FIG. 12B, Hep-I 1.5 μg/mL or Hep-III 2.5 μg/mL 30 minutes every day, sodium chlorate 10 mM in medium
Description: as §2
Heparinase III (Hep-III) was prepared as described previously (Godavarti, R., et al. (1996) Biochemistry 35, 6846-52). […] Treated cells were analyzed for differentiation into endothelial cells between day 3 and day 15. […]
Cells were harvested at various time points during differentiation, incubated with rat monoclonal antibody against CD16/CD32 (1:50 dilution, Pharmingen, San Diego, Calif.) to block Fey receptors and incubated further with a primary antibody against von Willebrand factor (vWF) (Dako (Carpinteria, Calif.), rabbit polyclonal, added at a 1:100 dilution). […] Cells were then washed twice and were incubated with FITC-conjugated secondary antibody (Jackson ImmunoResearch, West Grove, Pa.) in a 1:100 dilution, washed twice and taken up in OptiMEM (GIBCO/BRL, Carlsbad, Calif.) and analyzed on a Becton Dickinson (Franklin Lakes, N.J.) FACScan flow cytometer (excitation 488 nm, argon laser; emission 580/30). […]

[5] = heparin added to sodium chlorate treated ES cells

Row | Molecule | effect of exogenous addition of growth factors on differentiation into endothelial cells (ES cells) | phosphorylation of ERK1/2 [1] | vWF expression (confocal microscopy) [2] | Oct-4 levels of differentiating cells (confocal microscopy) [2] | decrease of the proportion of cells expressing detectable levels of vWF [4] | Oct-4 transcript levels [3] | VE-cadherin transcript levels [3] | eNOS transcript levels [3] | other results
1 | insulin: listed among growth factors added exogenously to the culture | No effects | – | – | – | – | – | – | – | –
2 | heparin [reference compound] | – | – | – | – | – | – | – | – | phosphorylation of ERK1/2, reversal of inhibition ([1]; exogenous heparin added to treated cells): inhibition is reversed; vWF staining (confocal microscopy), reconstitution ([2]; heparin added to sodium chlorate treated ES cells during differentiation, FIG. 15C): increased vWF staining; VE-cadherin transcript levels, reconstitution [3, 5]: increased; eNOS transcript levels, reconstitution [3, 5]: increased
3 | [O-][Cl+2]([O-])O [sodium chlorate, reference compound] | – | inhibits | inhibitory effects | none of the treatments had significant effects | approximately 5 fold | no effect | significantly decreased | significantly decreased | –
4 | VEGF | No effects | – | – | – | – | – | – | – | –
5 | HGF: growth factor added exogenously to the culture | No effects | – | – | – | – | – | – | – | –
6 | B1 | – | inhibits | inhibitory effects | none of the treatments had significant effects | ~3 fold | no effect | decreased | decreased | –
7 | B2 | – | inhibits | inhibitory effects | none of the treatments had significant effects | approximately 5 fold | no effect | significantly decreased | significantly decreased | –
